Assay results from patent US6166066A, “Cannabinoids selective for the CB2 receptor” (The University of Connecticut, priority 1999, dated 2000).

Legend:
CB1 receptor [1] = target: T1, CB1 receptor (Rattus norvegicus, UniProt P20272); experiment: Radioligand binding assay ([H^3]CP-55,940), rat forebrain membranes as source of CB1; conditions: 0.8 nM [H^3]CP-55,940, 30° C., 1 hour, Ki from IC50 (Cheng and Prusoff)
T1 construct: rat forebrain membranes as a source of CB1; from tissue; host or cells: rat brain membranes (called forebrain; prepared from whole brains minus the cerebral cortex)
Protocol: The binding affinities of the novel compounds described in this invention for the central cannabinoid receptor were assessed using rat forebrain membranes as a source of CB1. Membranes were prepared as described by the method of Dodd et al., Brain Res. 226:107 (1981), the entire teachings of which are incorporated herein by reference. Rat whole brains minus the cerebral cortex were diced with a razor blade and homogenized in 0.32 M sucrose, pH 7.4. The resulting suspension was spun at 400×g at 4° C. The supernatant was decanted and layered over 1.2 M sucrose in TME buffer (25 mM Tris base, 5 mM MgCl2 1 mMEDTA, pH 7.4) and spun at 109,000×g. The interface containing plasma membrane protein was collected, pooled and layered over 0.8 M sucrose in TME, pH 7.4. The pellet was carefully resuspended in TME, pH 7.4 and the total protein content was assayed by the method of Markwell et al., Anal. Biochem. 87:206 (1978), the entire teachings of which are incorporated herein by reference. Protein was aliquotted, frozen under liquid nitrogen and stored at -80° C. until use.
(§1) Approximately 30 μg of tissue was incubated in silanized 96 well microtiter plate with TME containing 0.1% essentially fatty acid free bovine serum albumin (BSA), 0.8 nM [H^3 ]CP-55,940 and various concentrations of the test compound in a final volume of 200 μL. Assays were incubated at 30° C. for 1 hour. The samples were filtered using Packard Filtermate 196 and Whatman GF/C Filterplates and washed with wash buffer (TME) containing 0.5% BSA. Radioactivity was detected using MicroScint 20 scintillation cocktail added directly to the dried filterplates, and the filterplates were counted using a Packard Instruments Top-Count. Nonspecific binding was assessed using 100 nM CP-55,940. Data collected from three independent experiments performed with duplicate determinations were normalized between 100% and 0% specific binding for [H^3 ]CP-55,940, determined using buffer and 100 nM CP-55,940. The normalized data was analyzed using a 4 parameter nonlinear logistic equation to yield IC50 values. Data from at least two independent experiments performed in duplicate were used to calculate IC50 values which were convered to Ki values using the assumptions of Cheng and Prusoff, Biochem. Pharmacol. 22:3099 (1973), the entire teachings of which are incorporated by reference.

CB2 receptor [2] = target: T2, CB2 receptor (Mus musculus, UniProt P47936); experiment: Radioligand binding assay ([H^3]CP-55,940), mouse spleen as source of CB2; conditions: for Ki: mouse spleen, conducted in the same manner as for CB1, Ki from IC50 (Cheng and Prusoff)
T2 construct: Mouse spleen was used as a source of CB2 receptors; from tissue; host or cells: mouse spleen
Protocol: as §1
Mouse spleen was used as a source of CB2 receptors to assess binding affinity of analogs described in this invention. The CB2 binding assay was conducted in the same manner as for CB1. Silanized centrifuge tubes were used throughout to minimize receptor loss due to adsorption.

CB1 receptor [3] = conditions: in the brain; background; cited from earlier work
CB2 receptor [4] = conditions: in the spleen; background; cited from earlier work

T1 sequence (P20272 whole entry): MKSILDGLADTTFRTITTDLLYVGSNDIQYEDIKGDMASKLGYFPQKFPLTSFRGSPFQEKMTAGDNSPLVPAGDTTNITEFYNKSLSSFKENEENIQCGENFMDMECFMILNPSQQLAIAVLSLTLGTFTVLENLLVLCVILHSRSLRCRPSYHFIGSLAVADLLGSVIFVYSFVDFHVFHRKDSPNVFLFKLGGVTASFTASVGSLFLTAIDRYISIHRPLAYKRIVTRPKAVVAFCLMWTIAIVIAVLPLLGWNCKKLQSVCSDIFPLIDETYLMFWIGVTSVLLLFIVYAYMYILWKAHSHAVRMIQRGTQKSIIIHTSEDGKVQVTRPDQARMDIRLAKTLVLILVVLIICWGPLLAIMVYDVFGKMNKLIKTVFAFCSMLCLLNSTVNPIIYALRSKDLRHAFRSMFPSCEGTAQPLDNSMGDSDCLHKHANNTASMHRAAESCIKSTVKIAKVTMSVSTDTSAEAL
T2 sequence (P47936 whole entry): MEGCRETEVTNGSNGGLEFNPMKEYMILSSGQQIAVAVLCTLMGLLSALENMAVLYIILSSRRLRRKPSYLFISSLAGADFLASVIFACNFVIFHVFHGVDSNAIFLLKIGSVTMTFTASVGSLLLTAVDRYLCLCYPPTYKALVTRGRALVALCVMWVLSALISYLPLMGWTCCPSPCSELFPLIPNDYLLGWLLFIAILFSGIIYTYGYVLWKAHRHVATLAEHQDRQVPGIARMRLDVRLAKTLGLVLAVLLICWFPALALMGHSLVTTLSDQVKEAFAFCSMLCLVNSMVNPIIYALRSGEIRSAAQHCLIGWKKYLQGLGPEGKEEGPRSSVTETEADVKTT

Row | Structure (SMILES) | Ki (CB1 receptor [1]) | Ki (CB2 receptor [2]) | affinity for the CB2 receptor relative to the CB1 receptor (CB2 receptor [2]; CB2 (mouse spleen) versus CB1 (rat forebrain)) | binding to the CB1 receptor (CB1 receptor [3]) | binding to the CB2 receptor (CB2 receptor [4])
1 | CC1=CCC2C(C1)c1c(cc3c(c1O)C1CC(CCC1C)C3(C)C)OC2(C)C (stereo not shown) [AM725] | 360000 nM | 281 nM | – | – | –
2 | CCCCCCC1CCc2cc(O)c3c(c2C1)OC(C)(C)C1CC=C(C)CC31 (stereo not shown) [AM855] | 22.3 nM | 58.6 nM | – | – | –
3 | CCCCCCC1CCCc2c1cc(O)c1c2OC(C)(C)C2CC=C(C)CC12 (stereo not shown) [AM858] | 524 nM | 456 nM | – | – | –
4 | CC1=CCC2C(C1)c1c(cc3c(c1O)C1CC(CCC1C)C3(C)C)OC2(C)C (stereo not shown) [AM724] | 6880 nM | 16.9 nM | about 400 times | – | –
5 | CCCCCC1CCc2c(cc3c(c2O)C2CC(C)=CCC2C(C)(C)O3)C1 (stereo not shown) [AM856] | 402 nM | 162 nM | – | – | –
6 | CCCCCc1cc(O)c2c(c1)OC(C)(C)C1CC=C(C)CC21 (single isomer, unassigned) [Δ^8 -Tetrahydrocannabinol] | – | – | – | binds | binds
